Consider 4 compounds from patent publication US4356188A, “1-Naphthyl-acetic acid derivatives and their therapeutic applications” (Institut de Recherche Scientifique "I.R.S.", priority 1978, dated 1982).

The nature of one series: in vivo. The note with it: rat, po, read-out: Acute toxicity LD 50. How it is done: Groups of 5 male CH. River rats, having an average weight of 125 g, kept on a water diet for 18 hours prior to the test, are orally administered the test materials, dissolved in neutral olive oil (1 ml/100 g), at dosages of 250-500-1000 and 2000 mg/kg.
The death rate is recorded 7 days after the administration: the lethal dose 50 (LD 50) is determined according to the method by Litchfield & Wilcoxon.

Series [1] in a line: Anti-inflammatory activity: carrageenin-induced plantar edema test (Winter). Type of series: in vivo. The note with it: Rattus norvegicus; rats, oral, 1 hour before 1% carrageenin; mean of 7 hourly determinations; dosages in method 25-50-100 mg/kg; read-out: Anti-inflammatory activity ID 50. On the procedure: The test selected is the test of the carrageenin-induced plantar edema, according to Winter (Proc. Soc. Exp. Biol., 1961, 111, 544). […] A fourth group (control) is administered only neutral olive oil (1 ml/100 g). One hour after the treatment, 0.1 ml of a 1% carrageenin suspension is injected in the left plantar aponevrosis. The intensity of the edema is evaluated by immersing the inflamed paw in a mercury plethystometer. The percent inhibition of the edema is calculated from the mean value of the 7 determinations made hourly after carrageenin administration. The dosage which inhibits inflammation by 50% (ID 50) is determined in the same manner as previously described.

Series [2] is described as follows: Anti-pyretic activity: brewer's yeast-induced fever. The note with it: Rattus norvegicus; rats, oral, 17 hours after brewer's yeast; mean of 5 hourly determinations; dosages in method 25-50-100 mg/kg; read-out: Anti-pyretic activity ID 50. Format: in vivo. How it is done: After determination of the rectal temperature, rats are sub-cutaneously administered 1 ml/100 g of a 20% brewer's yeast suspension, and are put on a water diet. 17 hours later, their temperature is again determined. The mean increase of the rectal temperature, under such experimental conditions, is about 1.5° C. The various test materials are then orally administered to groups of 10 rats (average weight: 140 g) at dosages of 25-50 and 100 mg/kg. A fourth group (control) is administered only olive oil (1 ml/100 g). The temperature drop subsequent to the treatment is followed hourly, for a period of time of 5 hours. The mean percent inhibition is calculated by effecting the mean of the 5 determinations, with respect to the value 1.5° C.

Series [3] in a line: Antalgic activity: phenylbenzoquinone-induced writhing (Sigmund, modified). Type of series: in vivo, male Ch. River mice. The note with it: Mus musculus, po; mice, p.o., 30 minutes before phenylbenzoquinone; spasms counted fifth to tenth minute; dosages in method 25-50-100 mg/kg; read-out: Antalgic activity ID 50. How it is done: The method used is that according to Sigmund and co-workers (Soc. Exp. Biol. Med. 1957, 95, 729) as modified by Hendershot & Forsaith (J. Pharm. Exp. Therap. 1959, 125, 237-240) and Lines & Gouret (J. Pharm. (Paris) 1972, 3, 513-515). Intraperitoneal administration of 0.25 ml/20 g, in mice, of a 0.02% phenylbenzoquinone solution in 5% alcohol, produces the development of a pain syndrome which is characterized by writhing movements and by hollow flanks. Treatment of groups of 10 male Ch. River mice (average weight: 20 g) at dosages of 25-50 and 100 mg/kg p.o. (a control group being administered only neutral olive oil; 0.5 ml/20 g) is effected 30 minutes prior to phenylbenzoquinone administration. The ID 50 is calculated as previously indicated, from the percent inhibition of the spasms counted from the fifth to the tenth minute that follow the injection of the algogenic agent.

Series [4] is described as follows: Ulcerogenic activity (Robert & Nezamis, modified by Lwoff). Further details: species or system rats of Ch. River strain. The conditions noted are these: rat, in vivo. How it is done: The technique used is that according to Robert & Nezamis (Proc. Soc. Exp. Biol. Med., 1958,99,443-447) as modified by Lwoff (J. Pharmacol. (Paris) 1971, 2, 81-83).
Groups of 20 rats of Ch. River strain (average weight: 130 g) kept on a water diet for the 24 hours prior to the test, are orally administered the test materials, at dosages of 50-100-200-400 and 800 mg/kg. A reference group is administered only neutral olive oil, at a dosage of 1 ml/100 g.
Six hours later, the animals are sacrificed by bulbar trauma, after which their stomachs are cut out, opened along the great curvature and rated according to a scale from 0 to 3, according to the extent of the ulceration.
The ulceration index for each dosage is calculated according to the following formula: [formula]
With this scoring method, a 100% ulceration index is equal to 300. The 50% ulcerogenic dosage (UD 50) is that which corresponds to an index of 150.

Read-outs that look alike come from different tables or passages of the source.

As for `CC(C)Cc1cccc2c(CC(=O)O)cccc12` [Derivative 1, [5-isobutyl-1-naphthyl]acetic acid], the LD50 at 168 h in the series “in vivo” amounted to 600 mg/kg. Moreover, the ED50 in series [1] is 15 mg/kg; in series [2], 0.7 mg/kg; in series [3], 24 mg/kg. In series [4] (po), the TD50 at 6 h is > 800 mg/kg.

As for `CC(C)Cc1cccc2c(C(C)C(=O)O)cccc12` (centres unmarked) [Derivative 2, 2-[5-isobutyl-1-naphthyl]propionic acid], the LD50 at 168 h in the series “in vivo” was found to be 130 mg/kg. The ED50 in series [1] is 5 mg/kg; in series [2] it was < 1 mg/kg; in series [3], 4 mg/kg.

As for `CC(C)Cc1ccc(C(C)C(=O)O)cc1` (centres unmarked) [ibuprofen, reference compound], the ED50 was 38 mg/kg in series [1], 12 mg/kg in series [2] and 9 mg/kg in series [3]. This compound showed a TD50 at 6 h in series [4] (po) of 220 mg/kg.

`COc1ccc2cc([C@H](C)C(=O)O)ccc2c1` [naproxen, reference compound]: the ED50 stood at 3 mg/kg in series [1], 4.1 mg/kg in series [2] and 10.6 mg/kg in series [3]. For the same compound, in series [4] (rats, oral, 6 hours, dose giving ulceration index 150, dosages in method 50-800 mg/kg, read-out: Ulcerogenic activity UD 50), the TD50 at 6 h was found to be 43 mg/kg.
